Laboratory results reported in ChEMBL document CHEMBL1157120, “The identification of indacaterol as an ultralong-acting inhaled beta2-adrenoceptor agonist” (J Med Chem, 2010).
pEC50, pIC50, pKi: −log10 of the molar value.

Legend:
[1] = pH 7.4
Description: Chromatographic hydrophobicity index at 2 mg/ml at pH 7.4 by rapid gradient HPLC analysis

Albumin = Albumin (Homo sapiens, UniProt P02768); assay: Binding affinity to human serum albumin by UV/HPLC analysis; assay type: ADME; settings: isolated protein
[2] = target: T1, Beta-2 adrenergic receptor (Homo sapiens, UniProt P07550)
Description: Agonist activity at human beta2 adrenergic receptor assessed as increase in cAMP level by whole cell assay

[3] = target: Beta-2 adrenergic receptor (Cavia porcellus, UniProt Q8K4Z4)
Beta-2 adrenergic receptor (Cavia porcellus, UniProt Q8K4Z4), sequence (Q8K4Z4 whole entry): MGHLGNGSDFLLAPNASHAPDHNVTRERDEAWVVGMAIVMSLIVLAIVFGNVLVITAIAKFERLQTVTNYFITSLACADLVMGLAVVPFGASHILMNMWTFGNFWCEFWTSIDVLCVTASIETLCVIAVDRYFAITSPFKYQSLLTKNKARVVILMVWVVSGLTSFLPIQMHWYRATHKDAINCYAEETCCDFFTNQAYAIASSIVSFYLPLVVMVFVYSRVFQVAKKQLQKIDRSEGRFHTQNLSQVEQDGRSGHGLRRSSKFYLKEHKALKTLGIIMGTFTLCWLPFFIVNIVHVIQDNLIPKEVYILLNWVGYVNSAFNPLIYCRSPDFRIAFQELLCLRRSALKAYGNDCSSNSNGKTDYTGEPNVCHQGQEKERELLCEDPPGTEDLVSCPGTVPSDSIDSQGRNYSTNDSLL
Description: Agonist activity at beta2 adrenergic receptor in guinea pig tracheal strip assessed as inhibition of electrically-induced bronchocontractile response after 30 mins

[4] = target: T1, Beta-2 adrenergic receptor; assay: biochemical
Description: Displacement of [125I]cyanopindolol from human recombinant beta2 adrenergic receptor expressed in CHO cells by filtration assay

Cavia porcellus = species on record: Cavia porcellus; assay: Inhibition of serotonin-induced bronchoconstriction in guinea pig assessed as intrinsic duration of bronchodilatory activity at ED80
[5] = Intrinsic clearance in rat liver microsomes assessed per mg of protein at 1 uM after 10 to 30 mins by LC/MS analysis in presence of NADPH; assay type: ADME, Microsome
[6] = Intrinsic clearance in rat liver microsomes assessed per mg of protein at 1 uM after 10 to 30 mins by LC/MS analysis in presence of UDP-glucuronic acid; assay type: ADME, Microsome
[7] = Fraction unbound in human plasma; assay type: ADME, cell-free
[8] = Plasma protein binding in human at 1 to 2000 ng/mL after 3 hrs by liquid scintillation counting; assay type: ADME, cell-free; settings: read-out: PPB (converted)

Albumin, sequence (P02768 whole entry): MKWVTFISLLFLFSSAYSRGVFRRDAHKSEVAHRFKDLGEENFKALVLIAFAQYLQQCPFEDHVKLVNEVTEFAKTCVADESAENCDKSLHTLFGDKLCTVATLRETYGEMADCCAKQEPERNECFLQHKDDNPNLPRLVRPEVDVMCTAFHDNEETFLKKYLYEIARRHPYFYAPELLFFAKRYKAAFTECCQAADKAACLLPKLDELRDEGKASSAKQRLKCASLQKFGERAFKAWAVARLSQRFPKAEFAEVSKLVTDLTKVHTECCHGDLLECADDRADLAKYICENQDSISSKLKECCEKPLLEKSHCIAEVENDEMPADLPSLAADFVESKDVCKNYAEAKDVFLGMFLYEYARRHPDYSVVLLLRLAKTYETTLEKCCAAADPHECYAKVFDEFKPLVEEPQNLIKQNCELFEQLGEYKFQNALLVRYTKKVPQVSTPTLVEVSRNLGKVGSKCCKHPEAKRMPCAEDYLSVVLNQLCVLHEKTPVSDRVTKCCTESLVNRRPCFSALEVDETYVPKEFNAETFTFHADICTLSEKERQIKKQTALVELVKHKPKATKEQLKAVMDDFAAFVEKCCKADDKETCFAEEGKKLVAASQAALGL
T1 sequence (P07550 whole entry): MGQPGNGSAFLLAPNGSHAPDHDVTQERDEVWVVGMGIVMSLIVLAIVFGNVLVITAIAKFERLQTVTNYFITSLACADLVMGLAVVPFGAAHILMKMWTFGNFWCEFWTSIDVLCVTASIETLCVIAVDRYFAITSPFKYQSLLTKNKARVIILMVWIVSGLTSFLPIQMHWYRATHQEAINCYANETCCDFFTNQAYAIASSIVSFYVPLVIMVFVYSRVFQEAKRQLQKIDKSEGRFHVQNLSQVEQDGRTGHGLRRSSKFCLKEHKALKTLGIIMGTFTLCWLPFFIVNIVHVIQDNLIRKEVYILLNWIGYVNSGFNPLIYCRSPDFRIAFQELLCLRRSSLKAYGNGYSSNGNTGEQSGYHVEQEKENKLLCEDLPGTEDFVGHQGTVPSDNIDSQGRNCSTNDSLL

Structure (SMILES) | CHI [1] | Activity (Albumin) | pEC50 [2] | pIC50 [3] | pKi [4] | Time (Cavia porcellus) | microsomal CLint at 1 µM [5] | microsomal CLint at 1 µM [6] | fraction unbound [7] | fraction unbound at 3 h [8]
COc1cc2c(cc1OC)CC(NC[C@H](O)c1ccc(O)c3[nH]c(=O)ccc13)C2 | 32.4 | 59.5% | 7.74 | 8.64 | 6.47 | – | – | – | – | –
CCc1cc2c(cc1CC)CC(NC[C@H](O)c1ccc(O)c3[nH]c(=O)ccc13)C2 [INDACATEROL] | 59.7 | 95.7% | 7.96 | – | 7.12 | 24 h | 76 µL/min/mg | 378 µL/min/mg | 0.043 | 0.049
Cc1cc2c(cc1C)CC(NC[C@H](O)c1ccc(O)c3[nH]c(=O)ccc13)C2 | 54.9 | 89.8% | 7.41 | 7.32 | 6.28 | – | – | – | – | –
COc1ccc(C[C@@H](C)NC[C@H](O)c2ccc(O)c3[nH]c(=O)ccc23)cc1 [CARMOTEROL] | 37.7 | 57.1% | 9.12 | 9.52 | 8.50 | – | – | – | – | –
CCc1ccc(CC)c2c1CC(NC[C@H](O)c1ccc(O)c3[nH]c(=O)ccc13)C2 | 62.9 | 94% | 6.94 | 7.12 | 6.16 | – | – | – | – | –
OCc1cc(C(O)CNCCCCCCOCCCCc2ccccc2)ccc1O (centres undefined) [SALMETEROL] | 56.7 | 91.1% | – | – | – | – | – | – | – | –
CCCCc1cc2c(cc1CCCC)CC(NC[C@H](O)c1ccc(O)c3[nH]c(=O)ccc13)C2 | > 70 | 99.5% | 7.60 | < 6.00 | 6.95 | – | – | – | – | –
CC(C)(C)NCC(O)c1ccc(O)c(CO)c1 (centres undefined) [ALBUTEROL] | 21 | 29.9% | – | – | – | – | – | – | – | –
CCCc1cc2c(cc1CCC)CC(NC[C@H](O)c1ccc(O)c3[nH]c(=O)ccc13)C2 | > 70 | 98.6% | 7.85 | 7.70 | 6.92 | – | – | – | – | –
O=c1ccc2c([C@@H](O)CNC3Cc4ccccc4C3)ccc(O)c2[nH]1 | 38.2 | 63.8% | 8.30 | 9.08 | 6.66 | – | – | – | – | –
CCc1cc2c(cc1CC)CC(NC[C@H](O)c1ccc(O[C@@H]3O[C@H](C(=O)O)[C@@H](O)[C@H](O)[C@H]3O)c3[nH]c(=O)ccc13)C2 | – | – | – | – | < 5.00 | – | – | – | – | –
